According to US8703215B2, “Agents from Ficus hispida for the amelioration of metabolic syndrome and related diseases” (Laila Nutraceuticals, priority 2009, dated 2014):

Assays:
[1] = Body weight gain in high fat diet induced obesity model of Sprague-Dawley rats; type: in vivo; settings: 7 mg/kg oral daily, 8 weeks
From the text: (§1) Induction: Selected healthy Sprague-Dawley rats were randomly assigned to control or various treatment groups (n=7). All the animals allocated to the obesity study were made experimentally obese through dietary intervention during the entire eight weeks induction period by feeding high fat diet ad libitum containing Bengal gram 32 g, Wheat floor 15 g, Yeast 1 g, Butter 2 g, Ground nut oil 8 g, Casein 5 g, Vanaspathi 20 g, Vitamin mix 05 g, Milk powder 12 g and Mineral Salt mixture 4.5 g per 100 g of high fat diet.
Treatment: Following 8 weeks of induction phase, the animals were treated orally (using oral feeding gavage) with either of the allocated test substances or vehicle daily for 8 weeks. […]
Body weights: Body weight of individual animal was recorded weekly during the entire duration of the study. Mean body weights for the treatment groups and control group were determined. The body weight gain was calculated at the end of 1st week, 4th week and 8th week after initiation of treatment in comparison to initial body weights. The percentage reduction in weight gain in the treatment groups was then calculated by comparing the weight gain in each treatment with that of control group. […]

adiponectin = experiment: Serum adiponectin in high fat diet induced obese rats (ELISA); type: in vivo, Sprague-Dawley rats; settings: 7 mg/kg daily, 8 weeks
From the text: as §1
(§2) Treatment: Following 8 weeks of induction phase, the animals were treated orally (using oral feeding gavage) with either of the allocated test substances or vehicle daily for 8 weeks. The animals of treatment groups were supplemented with 100 mg/kg body weight of LI/PD/044B/03 or 250 mg/kg body weight of LI/PD/044B/03 or 7 mg/kg body weight of sibutramine in 10 mL of 0.5% CMC in water for further 8 weeks. The control group of animals received only the vehicle (10 mL of 0.5% CMC in water) during this period. During the treatment phase, all animals were provided with the standard rodent diet till the end of the study.
Estimation of Biomarker Adiponectin: The serum adiponectin concentration for the control and treatment groups of animals were assessed using double antibody based sandwich rat adiponectin ELISA kit. […]

[2] = Serum LDL in high fat diet induced obese rats; type: in vivo, Sprague-Dawley rats; settings: 7 mg/kg, 8 weeks
From the text: as §1, §2
Serum LDL concentration: The serum LDL levels in animals supplemented with different Treatments and control were estimated on Human Biochemistry Analyzer (German) and the results are summarized in FIG. 7B.

human cancer cells = settings: small panel of human cancer cells; cited from earlier work

Compound	reduction in body weight gain vs control group [1]	improvement in serum adiponectin concentration vs baseline (adiponectin)	serum LDL concentrations [2]	cytotoxic activity (human cancer cells)
CC(C)CC(N(C)C)C1(c2ccc(Cl)cc2)CCC1 (centres unmarked) [sibutramine]	40%	6.3%	significant reduction	
ficustriol				inactive
COc1ccc2c3c(c4cc(OC)c(OC)cc4c2c1)CN1CCCC1C3O (centres unmarked) [O-Methyltylophorinidine]				potent cytotoxic activity
